Counter-ions that a name gives are not always drawn.
Each molecule was assayed on episomal HPV-16 DNA in W12-20850 cells (assay: W-12 cellular assay (episomal HPV-16 DNA, hybrid capture)). Settings: Human papillomavirus 16, 96 h; W12-20850 cells, four days incubation, episomal HPV-16 DNA quantified by hybrid capture, inhibition relative to untreated control cells; read-out: W-12.
Format: cell-based, HPV16

IC50 [nM] | SMILES
< 10 | Clc1ccccc1NC1CCCc2c1[nH]c1ccc(Br)cc21 (stereo not drawn) [Example 49, 6-Bromo-N-(2-chlorophenyl)-2,3,4,9-tetrahydro-1H-carbazol-1-amine]
57 | COc1ccccc1NC1CCCc2c1[nH]c1ccc(Br)cc21 (stereo not drawn) [Example 48, 6-Bromo-N-(2-methoxyphenyl)-2,3,4,9-tetrahydro-1H-carbazol-1-amine]
< 10 | Clc1ccc(NC2CCCc3c2[nH]c2ccc(Br)cc32)cc1 (stereo not drawn) [Example 20, 6-Bromo-N-(4-chlorophenyl)-2,3,4,9-tetrahydro-1H-carbazol-1-amine]
10 | Brc1ccc2[nH]c3c(c2c1)CCCC3Nc1ccccc1 (stereo not drawn) [Example 13, 6-Bromo-N-phenyl-2,3,4,9-tetrahydro-1H-carbazol-1-amine]
14 | Clc1ccc(NC2CCCc3c2[nH]c2ccc(Cl)cc32)cc1 (stereo not drawn) [Example 16, 6-Chloro-N-(4-chlorophenyl)-2,3,4,9-tetrahydro-1H-carbazol-1-amine]
< 10 | COc1cccc(NC2CCCc3c2[nH]c2ccc(Br)cc32)c1 (stereo not drawn) [Example 45, 6-Bromo-N-(3-methoxyphenyl)-2,3,4,9-tetrahydro-1H-carbazol-1-amine]
< 10 | Fc1ccc(NC2CCCc3c2[nH]c2ccc(Br)cc32)cc1 (stereo not drawn) [Example 21, 6-Bromo-N-(4-fluorophenyl)-2,3,4,9-tetrahydro-1H-carbazol-1-amine]
< 10 | Fc1cccc(NC2CCCc3c2[nH]c2ccc(Br)cc32)c1 (stereo not drawn) [Example 46, 6-Bromo-N-(3-fluorophenyl)-2,3,4,9-tetrahydro-1H-carbazol-1-amine]
112 | Brc1ccc2[nH]c3c(c2c1)CCCC3Nc1ccc2[nH]ccc2c1 (stereo not drawn) [Example 47, 6-Bromo-N-(1H-indol-5-yl)-2,3,4,9-tetrahydro-1H-carbazol-1-amine]
< 10 | Brc1ccc2[nH]c3c(c2c1)CCCCC3Nc1ncccn1 (stereo not drawn) [Example 38, 2-Bromo-N-pyrimidin-2-yl-5,6,7,8,9,10-hexahydrocyclohepta[b]indol-6-amine]
72 | Brc1ccc2[nH]c3c(c2c1)CCCC3Nc1nc2ccccc2s1 (stereo not drawn) [Example 36, N-(1,3-Benzothiazol-2-yl)-6-bromo-2,3,4,9-tetrahydro-1H-carbazol-1-amine]
10 | COc1ccc(NC2CCCc3c2[nH]c2ccc(Cl)cc32)cc1 (stereo not drawn) [Example 15, 6-Chloro-N-(4-methoxyphenyl)-2,3,4,9-tetrahydro-1H-carbazol-1-amine]
15 | CCCc1cnc(NC2CCCc3c2[nH]c2ccc(Br)cc32)nc1 (stereo not drawn) [Example 28, 6-Bromo-N-(5-propylpyrimidin-2-yl)-2,3,4,9-tetrahydro-1H-carbazol-1-amine]
< 10 | COc1ccc(NC2CCCc3c2[nH]c2ccc(Br)cc32)cc1 (stereo not drawn) [Example 19, 6-Bromo-N-(4-methoxyphenyl)-2,3,4,9-tetrahydro-1H-carbazol-1-amine]
22 | Clc1ccc(NC2CCCc3c2[nH]c2ccc(Br)cc32)cc1Cl (stereo not drawn) [Example 51, 6-Bromo-N-(3,4-dichlorophenyl)-2,3,4,9-tetrahydro-1H-carbazol-1-amine]
4500 | c1cnc(NC2CCCc3c2[nH]c2ccccc32)nc1 (stereo not drawn) [Example 37, N-Pyrimidin-2-yl-2,3,4,9-tetrahydro-1H-carbazol-1-amine]
30 | N#Cc1ccc(NC2CCCc3c2[nH]c2ccc(Br)cc32)nc1 (stereo not drawn) [Example 35, 6-[(6-Bromo-2,3,4,9-tetrahydro-1H-carbazol-1-yl)amino]nicotinonitrile]
23 | Fc1ccc(NC2CCCc3c2[nH]c2ccc(Cl)cc32)cc1 (stereo not drawn) [Example 17, 6-Chloro-N-(4-fluorophenyl)-2,3,4,9-tetrahydro-1H-carbazol-1-amine]
44 | FC(F)(F)c1cnc(NC2CCCc3c2[nH]c2ccc(Br)cc32)nc1 (stereo not drawn) [Example 33, 6-Bromo-N-[5-(trifluoromethyl)pyrimidin-2-yl]-2,3,4,9-tetrahydro-1H-carbazol-1-amine]
62 | Cc1cc(C)nc(NC2CCCc3c2[nH]c2ccc(Cl)cc32)n1 (stereo not drawn) [Example 26, 6-Chloro-N-(4,6-dimethylpyrimidin-2-yl)-2,3,4,9-tetrahydro-1H-carbazol-1-amine]
35 | Cc1ccnc(NC2CCCc3c2[nH]c2ccc(Cl)cc32)n1 (stereo not drawn) [Example 25, 6-Chloro-N-(4-methylpyrimidin-2-yl)-2,3,4,9-tetrahydro-1H-carbazol-1-amine]
19 | Cc1ccc(NC2CCCc3c2[nH]c2ccc(Cl)cc32)cc1 (stereo not drawn) [Example 18, 6-Chloro-N-(4-methylphenyl)-2,3,4,9-tetrahydro-1H-carbazol-1-amine]
< 10 | Clc1ccc2[nH]c3c(c2c1)CCCC3Nc1ccccc1 (stereo not drawn) [Example 14, 6-Chloro-N-phenyl-2,3,4,9-tetrahydro-1H-carbazol-1-amine]
252 | Cc1ccc2[nH]c3c(c2c1)CCCC3Nc1ncccn1 (stereo not drawn) [Example 29, 6-Methyl-N-pyrimidin-2-yl-2,3,4,9-tetrahydro-1H-carbazol-1-amine]
44 | Clc1ccc2[nH]c3c(c2c1)CCCC3Nc1ncccn1 (stereo not drawn) [Example 23, 6-Chloro-N-pyrimidin-2-yl-2,3,4,9-tetrahydro-1H-carbazol-1-amine]
< 10 | FC(F)(F)c1ccc(NC2CCCc3c2[nH]c2ccc(Br)cc32)nc1 (stereo not drawn) [Example 34, 6-Bromo-N-[5-(trifluoromethyl)pyridin-2-yl]-2,3,4,9-tetrahydro-1H-carbazol-1-amine]
30 | COc1cc(OC)nc(NC2CCCc3c2[nH]c2ccc(Cl)cc32)n1 (stereo not drawn) [Example 24, 6-Chloro-N-(4,6-dimethoxypyrimidin-2-yl)-2,3,4,9-tetrahydro-1H-carbazol-1-amine]
70 | Fc1ccccc1NC1CCCc2c1[nH]c1ccc(Br)cc21 (stereo not drawn) [Example 50, 6-Bromo-N-(2-fluorophenyl)-2,3,4,9-tetrahydro-1H-carbazol-1-amine]

Same assay, conditions: Human papillomavirus 16, W12-20850, 96 h, read-out: W-12 (nM)

SMILES | IC50 [nM]
Cc1cc(C)nc(NC2CCCc3c2[nH]c2ccc(Br)cc32)n1 (stereo not drawn) [Example 32, 6-Bromo-N-(4,6-dimethylpyrimidin-2-yl)-2,3,4,9-tetrahydro-1H-carbazol-1-amine hydrochloride] | 12
COc1cc(OC)nc(NC2CCCc3c2[nH]c2ccc(C)cc32)n1 (stereo not drawn) [Example 31, N-(4,6-Dimethoxypyrimidin-2-yl)-6-methyl-2,3,4,9-tetrahydro-1H-carbazol-1-amine hydrochloride] | 70
FC(F)(F)c1ccc2[nH]c3c(c2c1)CCCC3Nc1ccccc1 (stereo not drawn) [Example 43, N-Phenyl-6-(trifluoromethyl)-2,3,4,9-tetrahydro-1H-carbazol-1-amine hydrochloride] | 51
Brc1ccc2[nH]c3c(c2c1)CCCC3Nc1ccccn1 (stereo not drawn) [Example 27, 6-Bromo-N-pyridin-2-yl-2,3,4,9-tetrahydro-1H-carbazol-1-amine hydrochloride] | 37
Brc1ccc2[nH]c3c(c2c1)CCCC3Nc1ncccn1 (stereo not drawn) [Example 22, 6-Bromo-N-pyrimidin-2-yl-2,3,4,9-tetrahydro-1H-carbazol-1-amine hydrochloride] | 97

Reference: patent publication US7351733B2, “Tetrahydrocarbazole derivatives and their pharmaceutical use” (SmithKline Beecham Corporation, priority 2003, dated 2008)
